Laboratory results reported in patent publication US20090170949A1, “Method To Control Body Weight” (priority 2006, published 2009).

Columns and labels:
[1] = Effect of lactisole on body weight (applicant's general finding); type: in vivo; conditions: also when encapsulated and/or coated to avoid contact with the taste receptor of the mouth
[2] = Triglycerides in blood plasma of obese marmosets treated with coated lactisole pills; type: in vivo, common marmoset monkeys (Callithrix jacchus); design: Triglycerides in blood plasma: unit not given here
Procedure: 5 mm diameter coated pill were made, comprising 20 mg tablettose, 26.5 mg Avicell PH 102, 2.5 mg Crospovidone and 1 mg Mg-stearate for the placebo, and 35 mg sodium 2-(4-methoxyphenoxy)propionate (Endeavour speciality chemicals), 11.5 mg Avicel PH 102, 2.5 mg Crospovidone and 1 mg Mg-stearate for the Lactisole pills. Pills were coated in a fluidized bed (GCPG1, Glatt), at a spray rate of 4 g/min, atomic pressure 1.5 bar, inlet air temperature 36° C., product temperature 31° C. at maximal air velocity. The composition of the coating solution was 11.4% Eudragit® EPO(Röhm Pharma), 1.14% Sodium lauryl sulphate (α-pharma), 4% Mg-stearate (α-pharma), 1.72% stearic acid (α-pharma) and water ad 100%.
Adult male and female common marmoset monkeys (Callithrix jacchus) were from the breeding colony of the German Primate Center (DPZ), Göttingen, Germany. Animals were housed in pairs in air-conditioned facilities on a 12 hr/12: HR light/dark cycle.
Animals were fed two times a day: mash feeding, containing 15 g of test diet in the morning, and 60 g of test diet in the afternoon (value per animal). Each time before feeding, the animals received two pills (either placebo or lactisole) in nutrical gel.
Three groups of marmosets were compared: 11 obese animals treated with lactisole, 11 obese animals receiving placebo and 12 lean control animals receiving placebo. The experiment is carried out for 10 weeks, and bodyweight, glycated hemoglobin HbA1c, and glucose in blood plasma is measured. […]
Obese animals were treated for 7 weeks with lactisole (70 mg, two times a day, before feeding). Control obese and lean animals received placebo pills.

[3] = rats, high lactisole concentrations added to the diet; considered statistically insignificant; cited from earlier work
[4] = Body weight gain and food intake of mice on low carbohydrate diet with or without sucralose; type: in vivo, mice (C57BL/6); conditions: C57BL/6 mice, low carbohydrate diet with 0.3% sucralose, ad libitum, 12 weeks
Source text: induction of weight increase in mice by the use of an artificial sweetener Two groups of mice (C57BL/6) were fed ad libitum with a low carbohydrate diet (1.9% remaining carbohydrate, Purina), with or without 0.3% sucralose (Tate and Lyle). Food consumption and body weight was followed for a period of 12 weeks.

SGLT1 [5] = test: SGLT1 expression in T1R3 knock-out mice on low carbohydrate plus sucralose diet; type: in vivo, mouse; conditions: T1R3 KO mice, 2 weeks
Procedure: (§1) Male CD-1 and C57BL/6 mice, six weeks old, from Charles River Laboratories were used. The α-gustducin knock out mouse was described by Wong et al. (1996); the T1R3 knock out mouse was described by Damak et al. 2003).
(§2) High and low carbohydrate diets were resp. TestDiet® 5810 and TestDiet® 5787-9. For the sucralose test, the low carbohydrate diet was supplemented with sucralose (1,6-dichloro-1,6-dideoxy-beta-D-fructofuranosyl-4-chloro-4-deoxy-alpha-galactopyranoside) at 2 mM.
(§3) Animals were killed by concussion followed by cervical dislocation. The entire small intestine was removed and flushed with ice-cold 0.9% NaCl, opened longitudinally, rinsed in saline and mucous removed by blotting. The small intestine was then divided into proximal, mid and distal sections and the mucosa removed by scraping. Mucosal scrapings were frozen immediately in liquid nitrogen and stored at −80° C. until use. […]
(§4) Second, groups of wild-type and T1R3 and α-gustducin KO mice were placed on each of three iso-caloric diets a) low carbohydrate, b) high carbohydrate, and c) low carbohydrate+artificial sweetener (sucralose), for two weeks. After this time the mice were killed and the small intestines were removed, divided into proximal, mid and distal regions, and SGLT1 expression, at protein and mRNA levels, were measured in each.

SGLT1 [6] = test: SGLT1 expression in α-gustducin knock-out mice on low carbohydrate plus sucralose diet; type: in vivo, mouse; conditions: α-gustducin KO mice, 2 weeks
Procedure: as §1, §2, §3, §4

[7] = male and female dogs, diet with various concentrations of sucralose; cited from earlier work
SGLT1 [8] = test: SGLT1 protein expression (western blot of luminal membrane vesicles) in wild-type mice on low carbohydrate plus sucralose diet; type: in vivo, mouse; conditions: 2 weeks
Procedure: as §1, §2, §3, §4

SGLT1 [9] = test: SGLT1 mRNA levels (real-time PCR) in small intestine of wild-type mice on low carbohydrate plus sucralose diet; type: in vivo, mouse; conditions: proximal and mid intestinal regions, sucralose (2 mM) added to low carbohydrate diet, 2 weeks, qPCR
Procedure: as §1, §2, §3, §4

COc1ccc(OC(C)C(=O)O)cc1 (stereo not drawn) [Lactisole, sodium 2-(4-methoxyphenoxy) propanoate]
effect on body weight [1]: body weight loss
Triglycerides in blood plasma ([2]; obese marmosets N = 11, high carb feeding week 0, week −4 with respect to lactisole treatment (before treatment)): 2.75
Triglycerides in blood plasma ([2]; obese marmosets N = 11, high carb feeding week 3, week −1 with respect to lactisole treatment (before treatment)): 2.24
Triglycerides in blood plasma ([2]; obese marmosets N = 11, high carb feeding week 5, week 1 of lactisole treatment, 70 mg two times a day): 1.82
Triglycerides in blood plasma ([2]; obese marmosets N = 11, high carb feeding week 7, week 3 of lactisole treatment, 70 mg two times a day): 1.85
Triglycerides in blood plasma ([2]; obese marmosets N = 11, high carb feeding week 9, week 5 of lactisole treatment, 70 mg two times a day): 1.57
Triglycerides in blood plasma ([2]; obese marmosets N = 11, high carb feeding week 11, week 7 of lactisole treatment, 70 mg two times a day): 1.52
serum triglyceride level, course in treated obese animals ([2]; obese marmosets, 7 weeks lactisole 70 mg two times a day before feeding): decreasing to the level of the lean control
body-weight gain [3]: reduction in body-weight gain

OC[C@H]1O[C@H](O[C@]2(CCl)O[C@H](CCl)[C@@H](O)[C@@H]2O)[C@H](O)[C@@H](O)[C@H]1Cl [sucralose, 1,6-dichloro-1,6-dideoxy-beta-D-fructofuranosyl-4-chloro-4-deoxy-alpha-galactopyranoside]
average increase in body weight gain versus control group [4]: 42%
food intake higher than control group [4]: 7.5%
SGLT1 mRNA response (SGLT1 [5]): no increase
SGLT1 protein response (SGLT1 [5]): no increase
SGLT1 mRNA response (SGLT1 [6]): no increase
SGLT1 protein response (SGLT1 [6]): no increase
body weight gain and final body weight [7]: gaining more rapidly body weight and reached a higher final body weight level
SGLT1 protein expression (SGLT1 [8]): increased
increase of SGLT1 mRNA (SGLT1 [9]): 30-70%
